From patent EP0981349B1, “5-ALPHA-PREGNAN-3-BETA-OL-20-ONE SULFATE FOR THE TREATMENT OF TUMOURS AND CNS DISEASES” (Wyeth, priority 1997, dated 1998) come the findings set out here.

Counter-ions that a name gives are not always drawn.

One data set deals with T1, progesterone receptors (Homo sapiens, UniProt P06401).
T1 sequence (P06401 1-933): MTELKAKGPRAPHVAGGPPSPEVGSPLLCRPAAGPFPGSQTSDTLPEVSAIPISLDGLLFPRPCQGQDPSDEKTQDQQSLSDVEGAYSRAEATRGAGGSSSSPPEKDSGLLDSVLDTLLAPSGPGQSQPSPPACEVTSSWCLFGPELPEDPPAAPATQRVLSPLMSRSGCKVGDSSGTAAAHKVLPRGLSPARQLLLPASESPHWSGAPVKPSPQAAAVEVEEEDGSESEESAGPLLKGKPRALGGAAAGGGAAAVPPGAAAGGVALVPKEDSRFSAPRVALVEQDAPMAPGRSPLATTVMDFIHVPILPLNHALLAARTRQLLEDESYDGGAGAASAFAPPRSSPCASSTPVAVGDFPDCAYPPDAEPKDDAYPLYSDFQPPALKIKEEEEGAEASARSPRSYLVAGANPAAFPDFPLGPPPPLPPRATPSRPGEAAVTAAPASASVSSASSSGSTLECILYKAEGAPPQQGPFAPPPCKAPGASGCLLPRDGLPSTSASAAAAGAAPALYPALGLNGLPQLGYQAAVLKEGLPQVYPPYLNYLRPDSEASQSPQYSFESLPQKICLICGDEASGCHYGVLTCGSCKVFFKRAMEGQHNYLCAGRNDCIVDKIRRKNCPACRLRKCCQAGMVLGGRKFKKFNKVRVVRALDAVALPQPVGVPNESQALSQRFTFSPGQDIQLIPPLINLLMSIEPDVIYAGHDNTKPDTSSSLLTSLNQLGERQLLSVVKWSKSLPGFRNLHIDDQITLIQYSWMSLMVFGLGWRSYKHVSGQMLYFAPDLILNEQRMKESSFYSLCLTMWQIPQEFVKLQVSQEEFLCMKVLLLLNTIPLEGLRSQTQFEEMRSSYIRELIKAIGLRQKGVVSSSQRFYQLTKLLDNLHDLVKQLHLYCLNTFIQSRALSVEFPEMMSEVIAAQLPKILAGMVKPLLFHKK
Nature of the data set: Stimulation of alkaline phosphatase enzyme activity in T47D cells (progestational activity). How it is done: The progestational activity of a representative compound of this invention (5α-pregnan-3β-ol-20-one 3-sulfate ester sodium salt) was evaluated in an in vitro standard pharmacological test procedure.
In this test procedure, the progestational activity of a compound is quantified based on its stimulation of alkaline phosphatase enzyme activity in T47D cells, a human breast cancer cell line which expresses high levels of progesterone receptors. This is a well established test procedure in which both the progestin receptors and the response stimulated by activated progestin receptors are endogenous to the cells. Cells are pre-conditioned in low serum medium for one day and then treated with test compounds. Alkaline phosphatase activity is measured 24 hr after treatment.

Data set [1] relates to potassium channel currents. The data set is described as follows: Whole cell recording of potassium currents from cultured hippocampal neurons. The format is cell-based. The settings on record: 2 µM, p = 0.0006. On the procedure: (§1) Briefly, the following procedure was used.
(§2) Whole cell recording techniques were used to record calcium and potassium currents from cultured hippocampal neurons. The compounds to be evaluated were made fresh each day in a 400 µM ethanol stock solution. The test compounds were diluted in saline to obtain a final concentration of 2 µM. The amplitude of calcium or potassium currents in control, test compound, and washout solutions was measured from at least 10 current traces for each condition. To compensate for rundown of the calcium current with time, control and washout currents were averaged. The current amplitude with drug was divided by the averaged control and washout current to determine the percent change. The means, standard deviations and errors for each test compound were calculated and significance from control was determined using the paired T-Test.

In another data set the test system is calcium channel currents. The data set is described as follows: Whole cell recording of calcium currents from cultured hippocampal neurons. It counts as cell-based. The settings on record: 2 µM, p = 0.044. On the procedure: as §1, §2

As to `CC(=O)O[C@]1(C(C)=O)CC[C@H]2[C@@H]3C[C@H](C)C4=CC(=O)CC[C@]4(C)[C@H]3CC[C@@]21C` [medroxyprogesterone acetate, reference compound], on progesterone receptors (t47d cells, 24 h), the “fold induction of alkaline phosphatase” value was 30 - 60 fold.

On progesterone receptors, `CC(=O)[C@H]1CC[C@H]2[C@@H]3CC[C@H]4C[C@@H](OS(=O)(=O)O)CC[C@]4(C)[C@H]3CC[C@]12C` [5α-pregnan-3β-ol-20-one 3-sulfate ester sodium salt] returned an EC50 of 5 µM. Besides, the “increased potassium channel currents versus control” value in data set [1] was 21.76 ± 2.40%. The “Calcium channel currents decrease versus control” value in the data set with calcium channel currents was 4.64 ± 1.64%.

A word on the EC50: it is the concentration that produces a half-maximal response. Low values mean higher potency in that assay, high ones lower potency in that assay.
